The text below walks through data of ChEMBL document CHEMBL5291721, “A preclinical secondary pharmacology resource illuminates target-adverse drug reaction associations of marketed drugs” (Nat Commun, 2023).

Structures are written as SMILES.

Assay [1] deals with T1, 5-hydroxytryptamine receptor 2A (Homo sapiens, UniProt P28223). It is filed as functional, cell-based.
Assay [2] has as its target T2, Beta-2 adrenergic receptor (Homo sapiens, UniProt P07550). It is filed as functional, cell-based.
For assay [3], the target named is T2, Beta-2 adrenergic receptor.
Assay [4] concerns the target T3, Gastrin/cholecystokinin type B receptor (Homo sapiens, UniProt P32239).
T3 sequence (P32239 whole entry): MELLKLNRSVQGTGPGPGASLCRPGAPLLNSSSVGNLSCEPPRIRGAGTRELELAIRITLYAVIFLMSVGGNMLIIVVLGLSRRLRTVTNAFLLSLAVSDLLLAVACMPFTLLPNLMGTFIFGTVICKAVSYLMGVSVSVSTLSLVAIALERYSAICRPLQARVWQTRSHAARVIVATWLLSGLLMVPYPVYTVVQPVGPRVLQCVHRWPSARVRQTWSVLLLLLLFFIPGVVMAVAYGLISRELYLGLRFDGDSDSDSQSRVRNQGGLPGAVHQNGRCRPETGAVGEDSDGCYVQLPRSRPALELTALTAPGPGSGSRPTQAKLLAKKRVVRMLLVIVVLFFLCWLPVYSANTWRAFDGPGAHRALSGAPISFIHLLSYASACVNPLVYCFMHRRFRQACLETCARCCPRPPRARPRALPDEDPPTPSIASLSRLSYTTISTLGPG

Assay [5] has as its target Beta-1 adrenergic receptor (Homo sapiens, UniProt P08588). The assay is classed as functional, cell-based.
Assay [6] addresses T1, 5-hydroxytryptamine receptor 2A. The assay is classed as functional, cell-based. This is another data set of the same source.
The target in assay [7] is T4, Cannabinoid receptor 1 (Homo sapiens, UniProt P21554). It is filed as functional, cell-based.
T4 sequence (P21554 whole entry): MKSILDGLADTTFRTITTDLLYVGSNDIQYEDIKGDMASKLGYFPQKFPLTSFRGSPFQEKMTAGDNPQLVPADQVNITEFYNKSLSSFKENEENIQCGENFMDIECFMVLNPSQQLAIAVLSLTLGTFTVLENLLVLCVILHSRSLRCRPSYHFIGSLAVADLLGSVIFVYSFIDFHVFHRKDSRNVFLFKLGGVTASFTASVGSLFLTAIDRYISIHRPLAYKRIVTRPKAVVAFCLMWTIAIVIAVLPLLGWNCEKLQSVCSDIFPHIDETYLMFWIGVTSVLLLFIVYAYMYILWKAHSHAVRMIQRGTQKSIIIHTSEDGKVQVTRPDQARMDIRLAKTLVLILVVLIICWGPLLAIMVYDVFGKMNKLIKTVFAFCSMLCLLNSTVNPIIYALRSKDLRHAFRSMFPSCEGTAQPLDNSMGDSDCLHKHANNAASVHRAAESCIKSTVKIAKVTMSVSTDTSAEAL
The target of assay [8] is T4, Cannabinoid receptor 1. The assay is classed as functional, cell-based. The source holds these as a separate data set.
The target in another assay is T5, Endothelin-1 receptor (Homo sapiens, UniProt P25101).
T5 sequence (P25101 whole entry): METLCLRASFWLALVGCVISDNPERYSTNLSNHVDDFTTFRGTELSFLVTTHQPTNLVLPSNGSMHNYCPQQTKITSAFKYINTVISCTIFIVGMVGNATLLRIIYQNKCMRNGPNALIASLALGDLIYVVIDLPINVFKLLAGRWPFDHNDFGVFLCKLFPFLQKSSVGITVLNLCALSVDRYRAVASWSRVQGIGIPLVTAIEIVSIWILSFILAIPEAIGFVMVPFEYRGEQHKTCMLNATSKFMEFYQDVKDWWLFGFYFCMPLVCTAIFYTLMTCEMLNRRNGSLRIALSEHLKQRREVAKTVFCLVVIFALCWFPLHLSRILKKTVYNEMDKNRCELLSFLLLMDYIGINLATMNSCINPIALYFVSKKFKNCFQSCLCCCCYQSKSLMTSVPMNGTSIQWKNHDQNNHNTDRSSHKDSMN

Assay [9] has as its target T6, 5-hydroxytryptamine receptor 1A (Homo sapiens, UniProt P08908).
T6 sequence (P08908 whole entry): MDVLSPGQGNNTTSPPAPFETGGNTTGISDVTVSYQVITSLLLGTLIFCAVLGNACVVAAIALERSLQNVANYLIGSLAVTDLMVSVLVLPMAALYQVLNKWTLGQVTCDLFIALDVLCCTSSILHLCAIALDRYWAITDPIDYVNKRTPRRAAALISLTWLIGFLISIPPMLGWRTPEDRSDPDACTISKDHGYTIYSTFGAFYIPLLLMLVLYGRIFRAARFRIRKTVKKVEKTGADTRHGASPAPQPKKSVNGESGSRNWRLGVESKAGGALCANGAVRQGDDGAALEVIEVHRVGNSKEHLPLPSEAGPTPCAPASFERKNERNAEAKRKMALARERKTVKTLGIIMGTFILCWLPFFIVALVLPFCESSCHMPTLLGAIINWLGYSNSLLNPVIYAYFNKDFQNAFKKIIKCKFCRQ
It is filed as functional, cell-based.

Assay [10] has as its target T7, Amine oxidase [flavin-containing] A (Homo sapiens, UniProt P21397).
T7 sequence (P21397 whole entry): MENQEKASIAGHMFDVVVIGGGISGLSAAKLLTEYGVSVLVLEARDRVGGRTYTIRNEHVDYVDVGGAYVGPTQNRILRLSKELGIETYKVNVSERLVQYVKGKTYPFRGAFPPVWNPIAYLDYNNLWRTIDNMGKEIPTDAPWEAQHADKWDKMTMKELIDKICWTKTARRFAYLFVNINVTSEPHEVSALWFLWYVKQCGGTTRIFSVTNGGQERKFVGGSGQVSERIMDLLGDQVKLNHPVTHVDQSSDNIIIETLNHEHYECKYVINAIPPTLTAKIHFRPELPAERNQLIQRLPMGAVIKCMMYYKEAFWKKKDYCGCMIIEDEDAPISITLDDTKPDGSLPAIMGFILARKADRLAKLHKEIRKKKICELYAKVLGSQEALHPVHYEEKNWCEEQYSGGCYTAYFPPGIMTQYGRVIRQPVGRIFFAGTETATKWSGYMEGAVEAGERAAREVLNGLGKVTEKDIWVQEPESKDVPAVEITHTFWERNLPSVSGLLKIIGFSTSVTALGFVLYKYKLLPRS
The assay is classed as functional.

A further assay concerns the target Mu-type opioid receptor (Homo sapiens, UniProt P35372).
Another assay deals with Melanocortin receptor 4 (Homo sapiens, UniProt P32245).
Melanocortin receptor 4, sequence (P32245 whole entry): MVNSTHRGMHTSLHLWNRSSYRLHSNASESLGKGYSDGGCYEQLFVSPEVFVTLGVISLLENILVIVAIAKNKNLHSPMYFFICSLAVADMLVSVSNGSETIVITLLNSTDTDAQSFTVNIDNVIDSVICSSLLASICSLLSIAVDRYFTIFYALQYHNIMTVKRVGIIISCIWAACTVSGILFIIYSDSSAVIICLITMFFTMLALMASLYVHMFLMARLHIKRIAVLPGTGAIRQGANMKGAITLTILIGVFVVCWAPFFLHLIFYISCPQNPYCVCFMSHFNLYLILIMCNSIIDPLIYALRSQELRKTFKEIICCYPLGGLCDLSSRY
Assay [11] addresses T8, Alpha-1A adrenergic receptor (Homo sapiens, UniProt P35348).
T8 sequence (P35348 whole entry): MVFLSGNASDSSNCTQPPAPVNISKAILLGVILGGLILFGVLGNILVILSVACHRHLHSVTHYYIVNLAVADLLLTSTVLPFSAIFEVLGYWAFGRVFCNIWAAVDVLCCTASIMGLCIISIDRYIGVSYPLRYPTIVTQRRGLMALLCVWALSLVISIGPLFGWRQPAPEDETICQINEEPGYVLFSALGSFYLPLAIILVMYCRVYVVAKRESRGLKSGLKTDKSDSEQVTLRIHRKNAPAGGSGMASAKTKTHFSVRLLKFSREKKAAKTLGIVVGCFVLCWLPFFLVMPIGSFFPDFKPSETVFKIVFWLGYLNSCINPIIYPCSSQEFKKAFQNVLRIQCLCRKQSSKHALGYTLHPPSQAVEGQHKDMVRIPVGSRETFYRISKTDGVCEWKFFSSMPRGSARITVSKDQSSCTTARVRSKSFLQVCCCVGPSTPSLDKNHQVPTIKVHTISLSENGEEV

Assay [12] deals with T4, Cannabinoid receptor 1.
Note: assay procedure not described here.

T1 sequence (P28223 whole entry): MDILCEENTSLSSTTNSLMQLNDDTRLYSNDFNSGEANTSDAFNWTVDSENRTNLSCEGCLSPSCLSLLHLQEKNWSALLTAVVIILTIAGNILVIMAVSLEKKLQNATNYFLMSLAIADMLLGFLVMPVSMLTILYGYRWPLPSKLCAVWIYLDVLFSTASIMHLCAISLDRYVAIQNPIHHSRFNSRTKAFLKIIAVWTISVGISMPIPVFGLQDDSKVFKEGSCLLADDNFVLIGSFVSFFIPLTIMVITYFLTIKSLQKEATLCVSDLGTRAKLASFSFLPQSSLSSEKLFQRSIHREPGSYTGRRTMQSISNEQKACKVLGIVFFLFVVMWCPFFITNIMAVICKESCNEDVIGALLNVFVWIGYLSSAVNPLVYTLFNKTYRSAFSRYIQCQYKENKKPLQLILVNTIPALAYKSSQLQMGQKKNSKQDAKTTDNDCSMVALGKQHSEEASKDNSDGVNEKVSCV
T2 sequence (P07550 whole entry): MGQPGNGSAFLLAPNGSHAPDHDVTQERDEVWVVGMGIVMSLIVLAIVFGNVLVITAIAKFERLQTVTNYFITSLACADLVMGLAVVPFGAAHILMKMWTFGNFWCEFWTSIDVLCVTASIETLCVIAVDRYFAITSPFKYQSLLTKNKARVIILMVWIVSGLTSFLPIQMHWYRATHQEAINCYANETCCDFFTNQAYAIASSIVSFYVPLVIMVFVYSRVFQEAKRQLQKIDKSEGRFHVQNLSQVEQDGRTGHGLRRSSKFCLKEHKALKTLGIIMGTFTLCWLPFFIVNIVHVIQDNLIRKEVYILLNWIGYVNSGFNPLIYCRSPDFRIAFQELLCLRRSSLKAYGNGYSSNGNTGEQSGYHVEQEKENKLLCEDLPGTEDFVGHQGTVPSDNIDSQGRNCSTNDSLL
Mu-type opioid receptor, sequence (P35372 whole entry): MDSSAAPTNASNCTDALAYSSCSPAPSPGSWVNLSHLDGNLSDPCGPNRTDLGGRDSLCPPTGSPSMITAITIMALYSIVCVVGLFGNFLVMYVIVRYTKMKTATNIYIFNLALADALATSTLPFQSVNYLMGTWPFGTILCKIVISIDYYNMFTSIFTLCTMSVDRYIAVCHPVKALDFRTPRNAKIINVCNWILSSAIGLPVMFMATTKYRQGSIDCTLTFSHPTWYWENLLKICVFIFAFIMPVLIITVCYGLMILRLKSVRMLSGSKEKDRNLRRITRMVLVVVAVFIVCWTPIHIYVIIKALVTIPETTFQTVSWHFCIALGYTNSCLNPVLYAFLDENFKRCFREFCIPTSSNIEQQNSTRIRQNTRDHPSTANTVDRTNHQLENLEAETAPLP
Beta-1 adrenergic receptor, sequence (P08588 whole entry): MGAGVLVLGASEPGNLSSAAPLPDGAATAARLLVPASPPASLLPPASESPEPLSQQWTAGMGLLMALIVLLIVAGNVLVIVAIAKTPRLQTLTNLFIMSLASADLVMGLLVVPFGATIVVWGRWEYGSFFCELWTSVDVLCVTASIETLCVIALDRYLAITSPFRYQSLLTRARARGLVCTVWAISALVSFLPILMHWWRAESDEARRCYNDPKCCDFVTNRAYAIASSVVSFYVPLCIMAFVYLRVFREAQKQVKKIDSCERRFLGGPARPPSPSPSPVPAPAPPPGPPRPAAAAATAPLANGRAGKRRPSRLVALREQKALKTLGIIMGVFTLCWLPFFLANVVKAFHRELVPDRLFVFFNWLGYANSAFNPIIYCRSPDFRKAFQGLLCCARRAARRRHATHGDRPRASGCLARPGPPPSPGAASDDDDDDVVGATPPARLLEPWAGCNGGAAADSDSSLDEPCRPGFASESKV

A word on the AC50: it is the concentration giving half of the maximal activity seen. A higher AC50 goes with weaker potency. As to `CC(=O)O[C@H](CC(=O)[O-])C[N+](C)(C)C` [ACETYLCARNITINE], the AC50 in [1], in assay [2], in assay [3], in assay [4], in assay [5] and in assay [6] was above 30 µM throughout. Moreover, the AC50 on Cannabinoid receptor 1 [7], at Cannabinoid receptor 1 [8] and at Endothelin-1 receptor was above 30 µM each time.

As for `O=C(O)CCNC(=O)c1ccccc1` [BETAMIPRON], the AC50 in [9], in assay [10], in [2], in assay [3], in [4] and in assay [5] was above 30 µM throughout. For the same molecule, the AC50 on Cannabinoid receptor 1 [7], at Cannabinoid receptor 1 [8] and at Endothelin-1 receptor was above 30 µM each time.

Turning to `O=C1CN=C(c2ccccn2)c2cc(Br)ccc2N1` [BROMAZEPAM], the AC50 was above 30 µM on Mu-type opioid receptor; above 10 µM in assay [9]; above 10 µM in [1]; above 10 µM on Melanocortin receptor 4; above 10 µM in assay [10]; above 30 µM in [2]. Moreover, the AC50 in assay [3] is above 10 µM; in assay [6], above 10 µM; in assay [11], above 10 µM; at Cannabinoid receptor 1 [12], above 10 µM; on Cannabinoid receptor 1 [7], above 30 µM.

Take `Oc1ccc2c(c1)[C@@]13CCCC[C@@]1(O)[C@@H](C2)N(CC1CCC1)CC3` [BUTORPHANOL]: the AC50 in assay [9], in [1], in [10], in assay [2], in assay [4] and in assay [6] was above 30 µM in each case. The AC50 at Cannabinoid receptor 1 [7], at Cannabinoid receptor 1 [8] and on Endothelin-1 receptor was above 30 µM each time.

On to `CC(=O)[C@@]1(O)CC[C@H]2[C@@H]3C=C(Cl)C4=CC(=O)[C@@H]5C[C@@H]5[C@]4(C)[C@H]3CC[C@@]21C` [CYPROTERONE], for which the AC50 at Mu-type opioid receptor is above 30 µM; in assay [9], above 10 µM; in assay [1], above 10 µM; on Melanocortin receptor 4, above 10 µM; in [10] it was above 10 µM; in assay [3] it was above 10 µM. Besides, the AC50 (in assay [6]; in assay [11]; on Cannabinoid receptor 1 [12]) was above 10 µM in each case.

On to `CCCCCC(=O)O[C@]1(C(C)=O)CC[C@H]2[C@@H]3CCC4=CC(=O)CC[C@]4(C)[C@H]3CC[C@@]21C` [HYDROXYPROGESTERONE CAPROATE], for which the AC50 (in [1]; on Melanocortin receptor 4; in [10]; in [2]; in assay [3]; in assay [4]) was above 30 µM throughout. Besides, the AC50 (in [6]; in assay [11]; at Cannabinoid receptor 1 [12]; at Cannabinoid receptor 1 [7]; on Cannabinoid receptor 1 [8]) was above 30 µM in each case.

Turning to `O=C(O)c1ccccc1Nc1cc(Cl)ccc1C(=O)O` [LOBENZARIT], the AC50 in assay [1] was above 30 µM; in [2], above 30 µM; in [3] it was above 30 µM; in assay [4], above 10 µM; in [5], above 30 µM; in assay [6] it was above 30 µM. For the same molecule, the AC50 at Cannabinoid receptor 1 [7], on Cannabinoid receptor 1 [8] and on Endothelin-1 receptor was above 30 µM in each case.

As for `COc1cc2c(cc1OC)C(CCc1ccc(Cl)cc1)N(C)CC2` (stereo not given) [METHOPHOLINE], the AC50 was above 30 µM on Mu-type opioid receptor; above 10 µM in [9]; above 10 µM in assay [1]; above 30 µM at Melanocortin receptor 4; 11 µM in assay [10]; above 30 µM in [3]. Besides, the AC50 (in assay [6]; in [11]; at Cannabinoid receptor 1 [12]) was above 10 µM each time.

`COc1ccc(-c2noc(CC(=O)O)c2-c2ccc(OC)cc2)cc1` [MOFEZOLAC]: the AC50 in assay [1] is above 30 µM; in [2] it was above 30 µM; in [3], above 30 µM; in assay [4], above 10 µM; in [5], above 30 µM; in [6] it was above 30 µM. Besides, the AC50 at Cannabinoid receptor 1 [7], on Cannabinoid receptor 1 [8] and at Endothelin-1 receptor was above 30 µM in each case.
